Like-named read-outs stand apart in the source and are kept apart here.
Experiments:
EcDXPS [1] = biological target: T1, EcDXPS (Escherichia coli, UniProt P77488); test: DXPS-IspC coupled assay, aerobic, WT EcDXPS; format: biochemical, E. coli; details: for MOI varying D-GAP / MOI varying pyruvate: WT EcDXPS, aerobic
T1 construct: made in house
Protocol: Inhibitory activity of compounds against DXPS were monitored via a continuous spectrophotometric coupled assay with DXPS and IspC as previously described.[41],[42] Briefly, Reaction mixtures containing HEPES (100 mM, pH 8.0), MgCl2 (2 mM), NaCl (5 mM), ThDP (1 mM), BSA (1 mg/mL), DXPS (125–500 nM), IspC (1.7 μM), NADPH (160 μM), DMSO (5%, v/v), and inhibitor (0–200 μM) were preincubated at 25 °C (or chamber temperature 25–30 °C) for 5 min. Enzymatic reactions were initiated via the addition of 20 μL of a 10x substrate mix for a final well volume of 200 μL. Reactions were performed in triplicate unless otherwise noted. See the following sections for details and modifications.
When varying pyruvate (0–500 μM), GAP was maintained at 50 μM (3 mM for R478A). When varying GAP (0–500 μM), pyruvate was maintained at 500 μM. The following [DXPS] were used when varying 1: WT EcDXPS, R478A, H431A, D427A (200 nM), R99A (500 nM), WT DrDXPS, WT PaDXPS (150 nM). […] Reactions were incubated and initiated as described above. Immediately following initiation, NADPH depletion was monitored at 340 nm at 25 °C for 7–10 min with a 14–20 second time interval. Initial velocities of DXP formation were determined from the linear portion of the NADPH decay. […] Initial velocities were plotted vs. substrate concentration, and the data were fit to equation 1 (mixed model), 2 (competitive), or 3 (uncompetitive) based on the calculated α value and goodness of fit in GraphPad Prism. Reported standard errors of the mean for Kis are calculated from three replicates.

EcDXPS [2] = biological target: T1, EcDXPS; details: cited from earlier work; for inhibitory activity against DXPS: source not stated at the place, probably ref 32
DXPS = biological target: T2, DXPS (Escherichia coli, UniProt P77488); test: NMR detection of chemical reduction by DXPS and substrates (LR 1H-15N HSQC); format: biochemical; details: 500 μM
T2 construct: made in house
Protocol: In order to determine if 1 is reduced by the C2-α-carbanion on DXPS, we prepared the ^15N-labeled analog 8 aerobically in Tris pH 8 (to bias the oxidized form, Fig S7) and then transferred this mixture to the anaerobic chamber to minimize O2-mediated re-oxidation of 8 following reduction by the C2-α-carbanion (Fig S18). […] Reactions containing 8 (500 μM) were then initiated by the addition of DXPS (1 μM) and ^13C-labeled pyruvate (2 mM), in the presence or absence of 500 μM GAP (Fig 8B–E, S22–23). Samples were then quenched by boiling and vortexing before being transferred into degassed NMR tubes and sealed with rubber septa and parafilm to preclude reoxygenation. […] Further evidence supporting Model 2 in which 1 induces LThDP decarboxylation and promotes substrate wasting, was obtained by detection of products using 1D ^1H-NMR which selectively detects H{^13C} and H3{^13C} spectra via a proton multiplicity filter (Fig 8, S23–24). […] Production of DXP relative to acetate in the presence of D-GAP was reduced in the presence of 8 (Fig S24), consistent with a mechanism in which 1 competes with GAP as an acceptor and in agreement with the previously characterized competitive mechanism of inhibition with respect to D-GAP.[32]
Reaction buffer (50 mM Tris pH 8, 2 mM MgCl2, 100 mM NaCl, 1 mM ThDP, 10% D2O) was prepared aerobically. Oxime 8 (500 μM) was added, and the mixture was incubated at 4 °C for 30 min. Reaction mixtures were then brought into the anaerobic chamber and allowed to deoxygenate ~2 hrs. Reactions were initiated by addition of 1 μM DXPS with 2 mM sodium pyruvate-^13C3 or 2 mM sodium pyruvate-^13C3 and 500 μM GAP. Reaction mixtures were incubated at 25 °C for 1 hr. Reactions were quenched by boiling for 5 min at 95 °C followed by vortexing for 15 seconds. The quenched mixtures were transferred to labeled NMR tubes which were sealed with rubber septa and parafilm prior to removal from the chamber to exclude oxygen once removed from the chamber. 2D Multiple Bond Long Range (LR) ^1H-^15N-HSQC and 1D ^1H detected H{^13C} and H3{^13C} spectra via a proton multiplicity filter which selects for ^13C nuclei attached to an odd number of protons were acquired on a Bruker Avance NEO 600 MHz spectrometer equipped with a TCI cryogenic probe equipped with z-gradients with a cryo-cooled ^13C preamplifier, resulting in high sensitivity for ^13C detection. Spectra were acquired at 600 MHz (^1H), 150 MHz (^13C), and 61 MHz (^15N) at 25 °C. Parameters for various categories of spectra are as follows: (LR ^1H-^15N HSQC): 16 scans and 150 ms acquisition time (t2) per FID and a ^1H spectral width of 15.1376 ppm; since the chemical shifts of N^R (δ 335) and N^O (δ 374) are separated by ~ 40 ppm, data collection times were optimized by positioning the ^15N carrier at 354 ppm and using an ^15N spectral width of 25 ppm and an acquisition time of 13 ms along ^15N (t1); with a 1.5 s relaxation delay between successive scans, the total data collection period per 2D spectrum was 20 minutes. ^1H detected H{^13C} and H3{^13C} filtered 1D spectra: 200 ms acquisition time/FID, and a 5s relaxation day between successive scans, 1.5 minutes per spectrum. Controls were also prepared in which reactions were initiated by addition of 1 μM DXPS with no substrates, as well as 2 mM ^13C-labeled pyruvate + 500 μM GAP with DXPS dialysis buffer in place of enzyme. A “mixed” redox state control of 1 (500 μM) was prepared aerobically in 50 mM HEPES pH 8 with 10% D2O.

R478A DXPS = biological target: T3, R478A DXPS (Escherichia coli, UniProt P77488, R478A); details: EcR478A vs WT; cited from earlier work
T3 construct: made in house

CN/N=C/c1cc(O)c(O)cc1O [compound 4]
MOI varying D-GAP (EcDXPS [1]): mixed | MOI varying pyruvate (EcDXPS [1]): uncompetitive | potency against DXPS (EcDXPS [2]; determined in the presence of ascorbate): lacking measurable potency

CO/N=C/c1cc(O)c(O)cc1O [compound 2]
MOI varying pyruvate (EcDXPS [2]; footnote a): Noncompetitive | Ki (EcDXPS [2]; vary pyruvate): 15.6 ± 0.7 µM

N/N=C/c1cc(O)c(O)cc1O [compound 3, (E,Z)-5-(hydrazineylidenemethyl)benzene-1,2,4-triol]
Ki (EcDXPS [1]): 17.5 ± 0.6 µM | MOI varying D-GAP (EcDXPS [1]): competitive | MOI varying pyruvate (EcDXPS [1]): uncompetitive

CO/N=C/c1ccc(O)c(O)c1 [compound 5]
inhibitory activity against DXPS (EcDXPS [2]): lack of potency

O/[15N]=C/c1cc(O)c(O)cc1O [compound 8, ^15N-labeled (E)-2,4,5-Trihydroxybenzaldehyde oxime]
redox state after incubation (LR 1H-15N HSQC) (DXPS; DXPS 1 μM + pyruvate 2 mM + D-GAP 500 μM, anaerobic): readily reduced | redox state after incubation (LR 1H-15N HSQC) (DXPS; DXPS 1 μM + pyruvate 2 mM, no GAP, anaerobic): fully reduced | redox state after incubation (LR 1H-15N HSQC) (DXPS; DXPS 1 μM, no substrates): maintained mostly in the oxidized form | redox state after incubation (LR 1H-15N HSQC) (DXPS; ascorbate 5 mM control): Total reduction | redox state after incubation (LR 1H-15N HSQC) (DXPS; pyruvate 2 mM + D-GAP 500 μM, no DXPS): Some reduction

CO/N=C/c1cc(O)ccc1O [compound 6]
inhibitory activity against DXPS (EcDXPS [2]): lack of potency

CC(=O)P(=O)(O)OCCc1cn([C@H](Cc2ccccc2)C(=O)O)nn1 [D-PheTrAP, D-phenylalanine triazol acetyl phosphonate]
fold loss in potency on EcR478A (R478A DXPS): > 30 fold

From paper doi:10.1101/2025.03.03.641193, “Trihydroxybenzaldoximes are redox cycling inhibitors of ThDP-dependent DXP synthase” (bioRxiv, 2025)
